These results are taken from patent publication US10344053B2, “Inhibitors for inhibiting tumor metastasis” (Forschungsverbund Berlin e.V., priority 2014, dated 2019).

In series [1] the target is EVH-1 domain. Description: Binding affinity to EVH-1 domain by isothermal titration calorimetry (ITC), Table 1. The conditions noted are these: for Kd / ITC ΔG: ITC; for Kd: EVH-1 domain; for ITC ΔG: free enthalpy of protein-ligand complex. The protocol: (§1) The substitution of the diproline units of the FPPPP motif with the Fmoc-ProMs was carried out. The binding affinities of the ligands to the domain were subsequently determined by means of isothermal titration calorimetry (ITC) on the basis of the dissociation constant (Kd) or the free enthalpy (ΔG) of the protein-ligand complexes. The results of the measurements were additionally checked by means of fluorescence titration (FT). A stronger binding of the respective ligand is expressed by a smaller value for Kd or a more negative value for ΔG. The correlation between the dissociation constant (Kd) and the free enthalpy (ΔG) is illustrated with the following equations: […]
(In general: In ITC the heat of successive injections is recorded.)

The target of series [2] is EVH-1 domain. Description: Binding affinity to EVH-1 domain by fluorescence titration (FT), Table 1. The conditions noted are these: for Kd: EVH-1 domain; for FT ΔG: free enthalpy of protein-ligand complex. The protocol: as §1
Series [3] has as its target T1, EVL-EVH1 (Homo sapiens, UniProt Q9UI08).
T1 construct: VASP-EVH-1, EnaH-EVH-1 and EVL-EVH-1 domain
As to the kind of experiment: Binding affinity by ITC, EVL-EVH1. The method, then:
as §1
(§2) A further analysis to test the dissociation constant (Kd) of a variety of other compounds was carried out by means of FT and ITC.

Series [4] concerns the target T2, VASP-EVH1 (Homo sapiens, UniProt P50552).
T2 construct: VASP-EVH-1, EnaH-EVH-1 and EVL-EVH-1 domain
As to the kind of experiment: Binding affinity by ITC, VASP-EVH1. The protocol: as §1, §2

Series [5] deals with T3, EnaH-EVH1 (Homo sapiens, UniProt Q8N8S7).
T3 construct: VASP-EVH-1, EnaH-EVH-1 and EVL-EVH-1 domain
Description: Binding affinity by ITC, EnaH-EVH1. The protocol: as §1, §2

Series [6] deals with T2, VASP-EVH1. As to the kind of experiment: Binding affinity by FT, VASP-EVH1. The protocol:
as §1, §2

Series [7] has as its target T1, EVL-EVH1. Description: Binding affinity by FT, EVL-EVH1. The protocol: as §1, §2
In a further series the test system is ena/VASP-EVH1. Description: Inhibition of ena/VASP-EVH1-mediated protein-protein interactions, affinity for the target (statements in words). It counts as binding. To be noted: result in words.
Series [8] deals with T3, EnaH-EVH1. As to the kind of experiment: Binding affinity by FT, EnaH-EVH1. The protocol:
as §1, §2

The nature of series [9]: in vitro. To be noted: mouse, mouse plasma.
The nature of series [10]: in vitro. The conditions noted are these: human, microsomes. The format is in vitro ADME.
Series [11] in a line: in vitro. To be noted: for Plasma stability, % remaining (Tlast 240 min): 4 h; for half-life: plasma. The format is in vitro ADME. The method, then: An in vitro assay was performed in the plasma of mice and humans.
The nature of series [12]: in vitro. The conditions noted are these: human, human plasma.
Series [13] can be described thus: in vitro. It counts as in vitro ADME. The conditions noted are these: mouse, microsomes.
The next series deals with cells. As to the kind of experiment: Cellular toxicity. It counts as cell-based. To be noted: result in words. The text has this:
FIG. 2: Cellular toxicity of the compound in accordance with Formula III.
The low or absent cellular toxicity likewise constitutes a surprising and advantageous property of the compounds. The inventive compounds bind to the target receptor not only with very low dissociation constants, but also with high specificity. For medical use of the compounds this is to be considered as an advantage.

The target in series [14] is T2, VASP-EVH1. As to the kind of experiment: Binding data to VASP-EVH1 (text, method not stated). To be noted: text b160.
Series [15] relates to MDA MB 231 breast cancer cells. Description: Matrigel migration assay (chemotaxis and motility). To be noted: relative to the baseline value (DMSO/no FBS gradient). The format is cell-based. The method, then: FIG. 1: Inhibition of the chemotaxis and motility of highly invasive tumor cells in a matrigel migration assay.
Cell culture experiments were performed with MDA MB 231 breast cancer cells.
Example Compound III inhibits the migration of MDA MB 231 breast cancer cells by more than 90% relative to the baseline value (DMSO/no FBS gradient) (FIGS. 1 A and B).

The subject of a further series is target cells. Description: Cell experiments: absorption of the compound by target cells. The format is cell-based. The conditions noted are these: ester derivative versus carboxylic acid ligand; result in words. The text has this:
Within the framework of cell experiments it could further be shown that, by replacing the carboxylic acid ligand with the ester derivative (NBD-Phe(2-CI)-[ProM-2][ProM-1]-OEt), the ability of the compound to be absorbed by the target cells could be improved. The absorption of the substance in the cell could thus be increased, without loss of the advantageous binding properties.

T1 sequence (Q9UI08 1-112 limits assumed): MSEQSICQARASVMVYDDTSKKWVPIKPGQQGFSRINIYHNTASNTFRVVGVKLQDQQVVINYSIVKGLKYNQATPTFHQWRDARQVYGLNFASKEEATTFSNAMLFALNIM
T3 sequence (Q8N8S7 1-111 limits assumed): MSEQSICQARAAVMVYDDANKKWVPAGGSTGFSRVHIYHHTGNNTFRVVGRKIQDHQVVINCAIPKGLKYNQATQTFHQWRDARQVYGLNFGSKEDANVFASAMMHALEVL
T2 sequence (P50552 2-113 limits assumed): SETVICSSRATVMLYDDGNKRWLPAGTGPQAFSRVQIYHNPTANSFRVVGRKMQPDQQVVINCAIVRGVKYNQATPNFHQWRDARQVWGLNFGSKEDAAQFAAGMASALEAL

Broadly, the Kd is the equilibrium constant for the complex coming apart. Lower therefore signals higher affinity. Consider `CC(=O)NC(Cc1ccccc1Cl)C(=O)N1CCCC12C=CC1CCC(C(=O)N3CCC4C=CC5CCC(C(=O)O)N5C(=O)C43)N1C2=O` (stereo not shown) [Ac-Phe(2-Cl)-[ProM-2][ProM-1]-OH, Ac-Phe(2-CI)-[ProM-2]-[ProM-1]-OH], for which, on EVH-1 domain [1], the Kd worked out at 3.8 µM and the “ITC ΔG” value was -7.41 kcal/mol. Besides, at EVH-1 domain [2], the equilibrium dissociation constant (Kd) was 2.7 µM and the “FT ΔG” value is -7.6 kcal/mol. The “improvement of the binding affinity by a factor (FT)” value in the series on EVH-1 domain [2] (in comparison to Ac-Phe(2-CI)-PP[ProM-1]-OH) was found to be 1.2.

Turning to `CC(=O)NC(Cc1ccccc1Cl)C(=O)N1CCCC12C=CC1CCC(C(=O)N3CCC4C=CC5C(C)CC(C(=O)O)N5C(=O)C43)N1C2=O` (stereo not shown) [Ac-Phe(2-Cl)-[ProM-2][ProM-9]-OH], on EVH-1 domain [1], binding was put at a Kd of 0.69 µM and the “ITC ΔG” value is -8.41 kcal/mol. In the series with EVH-1 domain [1] (determined by means of ITC, overall progression from the wild-type ligand), the “free enthalpy (Gibbs free energy) gain ΔΔG over the ligand optimization” value was -3.8 kcal/mol. Also, at EVH-1 domain [2], the affinity, expressed as Kd, was 0.28 µM and the “FT ΔG” value is -8.94 kcal/mol.

On to `CCOC(=O)[C@@H]1C[C@@H](CC)[C@@H]2C=C[C@H]3CCN(C(=O)[C@@H]4CC[C@H]5C=C[C@]6(CCCN6C(=O)[C@H](Cc6ccccc6Cl)NC(C)=O)C(=O)N54)[C@@H]3C(=O)N12` [Ac[2-Cl—F][ProM-2][ProM-13]-OEt, Ac-Phe(2-CI)-[ProM-2][ProM-13]-OEt], for which the equilibrium dissociation constant (Kd) stood at 0.28 µM at EVL-EVH1 [3]; 0.49 µM on VASP-EVH1 [4]; 0.31 µM on EnaH-EVH1 [5]; 0.4 µM on VASP-EVH1 [6]; 0.13 µM at EVL-EVH1 [7]; 0.18 µM on EnaH-EVH1 [8]. The “affinity for the target” value in the series with ena/VASP-EVH1 was “particularly strong affinity”.

By fraction unbound is commonly meant the share of the substance not bound to proteins or other matrix. High values mean much free substance, low ones little free substance. One may read the half-life as the time in which the quantity being followed falls by half. A higher half-life goes with slow loss. What is called microsomal CLint is the capacity of the preparation to metabolise the compound, expressed as a volume cleared per time. In the case of `CCOC(=O)C1CCC2C=CC3CCN(C(=O)C4CCC5C=CC6(CCCN6C(=O)C(Cc6ccccc6Cl)NC(C)=O)C(=O)N54)C3C(=O)N21` (stereo not shown) [Compound 4D, Ac-Phe(2-CI)-[ProM-2][ProM-1]-OEt], the Kd on EVL-EVH1 [3] worked out at 5.8 µM; at VASP-EVH1 [4] it was 9.4 µM; at EnaH-EVH1 [5] it was 7.8 µM; at VASP-EVH1 [6], 6.2 µM; on EVL-EVH1 [7] it was 4.1 µM; on EnaH-EVH1 [8], 4.1 µM. The figures for the fraction unbound in “in vitro [9]” and in “in vitro [12]” were 0.981 and 0.924, respectively. Besides, the half-life in “in vitro [10]” was greater than 1 h; in “in vitro [11]” (human), greater than 4 h; in the series “in vitro [11]” (mouse), greater than 4 h; in the series “in vitro [13]”, greater than 1 h. Moreover, the intrinsic clearance (microsomal CLint) is 26.4 µL/min/mg in “in vitro [10]” and 35.6 µL/min/mg in the series “in vitro [13]”. The “Plasma stability, % remaining (Tlast 240 min)” value in “in vitro [11]” (human) came to 95.5%; in the series “in vitro [11]” (mouse), 87.4%.

Take `CCOC(=O)[C@@H]1C[C@@H](C)[C@@H]2C=C[C@H]3CCN(C(=O)[C@@H]4CC[C@H]5C=C[C@]6(CCCN6C(=O)[C@H](Cc6ccccc6Cl)NC(C)=O)C(=O)N54)[C@@H]3C(=O)N12` [Compound III]: the cellular toxicity entry with cells is “non-toxic to cells”. On VASP-EVH1 [14], this compound displayed an equilibrium dissociation constant (Kd) of 0.28 µM. Besides, the “inhibition of migration of MDA MB 231 breast cancer cells” value in series [15] is “more than 90%”. The “inhibition of ena/VASP-EVH1-mediated protein-protein interactions” value with ena/VASP-EVH1 was “selectively inhibit”.

The compound `CC(=O)N[C@@H](CO)C(=O)N[C@@H](Cc1ccccc1)C(=O)N[C@@H](CCC(=O)O)C(=O)N[C@@H](Cc1ccccc1)C(=O)N1CCC[C@H]1C(=O)N1CCC[C@H]1C(=O)N1CCC[C@H]1C(=O)N1CCC[C@H]1C(=O)N[C@H](C(=O)N[C@@H](CCC(=O)O)C(=O)N[C@@H](CC(=O)O)C(=O)N[C@@H](CCC(=O)O)C(=O)N[C@@H](CC(C)C)C(N)=O)[C@@H](C)O` [reference compound] had a dissociation constant (Kd) at EVH-1 domain [1] of 20 µM.

As to “Ac-Phe(2-CI)-[ProM-2][ProM-1]-NH2 [Compound 4C]”, the results for the “Liver microsomal stability Clint” value in “in vitro [10]” and in the series “in vitro [13]” were 11.6 μl/min/mg protein and 34.0 μl/min/mg protein, respectively. Further, the “Liver microsomal stability t½” value in “in vitro [10]” and in “in vitro [13]” was greater than 1 h in each case. The “Plasma stability, % remaining (Tlast 240 min)” value is on record as 80.3% in “in vitro [11]” (human) and 94.7% in “in vitro [11]” (mouse).

In the case of Ac-Phe(2-Cl)-PPPP-OH, at EVH-1 domain [1], the equilibrium dissociation constant (Kd) came out at 18 µM and the “ITC ΔG” value is -6.45 kcal/mol. Moreover, on EVH-1 domain [2], the equilibrium dissociation constant (Kd) was 13 µM and the “FT ΔG” value is -6.64 kcal/mol.

Consider Ac-Phe(2-Cl)-PP[ProM-1]-OH, for which, at EVH-1 domain [1], the equilibrium dissociation constant (Kd) turned out to be 14.1 µM and the “ITC ΔG” value was -6.62 kcal/mol. For the same compound, at EVH-1 domain [2], the Kd is 3.2 µM and the “FT ΔG” value was -7.5 kcal/mol.

On to Ac-Phe(2-Cl)-PP[ProM-9]-OH, for which, on EVH-1 domain [1], the Kd was 8 µM and the “ITC ΔG” value is -6.96 kcal/mol. Further, at EVH-1 domain [2], the dissociation constant Kd stood at 0.4 µM and the “FT ΔG” value is -8.77 kcal/mol.

On to Ac-Phe(2-Cl)-[ProM-2][ProM-4]-OH, for which, at EVH-1 domain [1], the Kd worked out at 9.7 µM and the “ITC ΔG” value is -6.84 kcal/mol. Also, at EVH-1 domain [2], the Kd turned out to be 1.6 µM and the “FT ΔG” value was -7.91 kcal/mol.

With “NBD-Phe(2-CI)-[ProM-2]-[ProM-1]-OEt [NBD-Phe(2-CI)-[ProM-2][ProM-1]-OEt]”, the “ability to be absorbed by the target cells” value in the series on target cells is on record as “improved”.
